Source: paper PMC7822874, “Chemoprotective antimalarials identified through quantitative high-throughput screening of Plasmodium blood and liver stage parasites” (Scientific Reports, 2021)
Values joined by “and” are separate entries in the source; they are usually repeats but may differ in a detail not shown here. Equal values may be shown once.

How the values were obtained:
[1] = tested on: T1, Plasmodium falciparum Dd2-attB-ScDHODH (transgenic line expressing yeast DHODH), asexual blood stages; assay: organism not typed; parameters: replicate k of 3 (each line is one of three independent assays; the three lines of one compound and parasite line follow each other)
T1 construct: Dd2-attB-ScDHODH, the transgenic line that expresses yeast DHODH
Description: (§1) The overexpression of the fumarate-dependent yeast DHODH confers resistance to compounds that inhibit the parasite mETC, or the parasite DHODH enzyme that depends on ubiquinone provided by the parasite mETC. Assays were performed in three independent assays on a subset of compounds, and differences between the Dd2-attB parental line and the ScDHODH transgenic line were analyzed using two-sided Student’s t-tests.

[2] = tested on: T2, Plasmodium falciparum Dd2-attB (parental line), asexual blood stages; assay: microbe, parasite or virus in culture; parameters: replicate k of 3 (each line is one of three independent assays; the three lines of one compound and parasite line follow each other); conditions: n = 1; for Individual replicates / Log AC50 (M): 72 h; for AC50: Plasmodium falciparum, DD2, 72 h, read-out: Individual replicates / Log AC50 (converted)
T2 construct: Dd2-attB, the isogenic parental line
Description: as §1

[3] = 72 h; n = 1; read-out: Individual replicates / Log AC50 (converted)

Row | Structure (SMILES) | Individual replicates / Log AC50 (M) ([1]; 72 h, n = 1) | AC50 [1, 3] [µM] | Individual replicates / Log AC50 (M) [2] | AC50 [2] [µM] | Individual replicates / Log AC50 (M) ([1]; 72 h; n = 1)
1 | O=C(c1ccc(-c2cnc3c(O)cccc3c2)cc1)N1CCNCC1 [NCGC00189507-01] | -4.7986 Log AC50 (M) | 10 | -4.8986 Log AC50 (M) and -4.9986 Log AC50 (M) | 14.2 | 
2 | O=C(O)c1ccc(O)c2ncc(-c3ccc(C(=O)N4CCNCC4)cc3)cc12 [NCGC00189508-01] | -4.7486 Log AC50 (M) | 15.9 | -4.7486 Log AC50 (M) and -4.7986 Log AC50 (M) | 15.9 | 
3 | COC(=O)c1ccc(O)c2ncc(-c3ccc(C(=O)N4CCNCC4)cc3)cc12 [NCGC00189509-01] | -4.9486 Log AC50 (M) and -5.0986 Log AC50 (M) | 5.64 | -5.0486 Log AC50 (M) and -5.1486 Log AC50 (M) | 5.64 | 
4 | COC(=O)c1ccc(O)c2ncc(-c3ccc(C(=O)NCCCN(C)C)cc3)cc12 [NCGC00189510-01] | -4.7986 Log AC50 (M) and -5.1486 Log AC50 (M) |  | -5.1486 Log AC50 (M) and -5.1986 Log AC50 (M) | 7.97 | 
5 | COc1ccc(NCc2ccc(O)c3ncccc23)nc1 [NCGC00241022-01] | -4.9486 Log AC50 (M) | 11.3 | -4.8486 Log AC50 (M) | 20 | 
6 | COc1ccnc(NCc2ccc(O)c3ncccc23)c1 [NCGC00241023-01] |  | 12.6 | -4.7986 Log AC50 (M) | 15.9 | -4.8986 Log AC50 (M)
7 | Cc1cc(C)nc(NCc2ccc(O)c3ncccc23)c1 [NCGC00241026-01] | -4.8986 Log AC50 (M) | 20 | -4.7986 Log AC50 (M) | 17.8 | 
8 | Oc1ccc(CNc2cc(Cl)ccn2)c2cccnc12 [NCGC00241028-01] | -5.3486 Log AC50 (M) and -5.2986 Log AC50 (M) | 6.33 | -5.2986 Log AC50 (M) | 5.03 | 
9 | Oc1ccc(CNc2ccc3ccccc3n2)c2cccnc12 [NCGC00241029-01] | -4.8986 Log AC50 (M) | 7.1 | -4.8986 Log AC50 (M) and -5.0486 Log AC50 (M) | 7.1 | 
10 | COC(=O)c1ccnc(NCc2ccc(O)c3ncccc23)c1 [NCGC00241031-01] | -4.7986 Log AC50 (M) | 12.6 | -4.8986 Log AC50 (M) and -4.7486 Log AC50 (M) | 15.9 | 
11 | Cc1ccnc(NCc2ccc(O)c3ncccc23)c1 [NCGC00241032-01] | -5.0486 Log AC50 (M) | 14.2 | -4.8486 Log AC50 (M) and -4.7486 Log AC50 (M) | 17.8 | 
12 | O=C(O)c1ccc(O)c2ncc(N3CCOCC3)cc12 [NCGC00241036-02] |  | 10 |  | 14.2 | 
13 | COC(=O)c1ccc(O)c2ncc(NC3CCNCC3)cc12 [NCGC00241038-01] | -4.8986 Log AC50 (M) and -5.0986 Log AC50 (M) | 7.1 | -5.1986 Log AC50 (M) and -5.0486 Log AC50 (M) | 8.94 | 
14 | O=C(O)c1ccc(O)c2ncc(NC3CCNC3)cc12 (centres unmarked) [NCGC00241039-01] | -4.8486 Log AC50 (M) and -4.6486 Log AC50 (M) | 20 | -4.7486 Log AC50 (M) and -4.7986 Log AC50 (M) | 20 | 
15 | COC(=O)c1ccc(O)c2ncc(NC3CCNC3)cc12 (centres unmarked) [NCGC00241040-01] |  | 15.9 | -4.7486 Log AC50 (M) and -4.8486 Log AC50 (M) | 14.2 | -4.7986 Log AC50 (M)
16 | N[C@H]1CCN(c2cnc3c(O)ccc(C(=O)O)c3c2)C1 [NCGC00241041-01] |  | 15.9 |  | 14.2 | 
17 | COC(=O)c1ccc(O)c2ncc(N3CC[C@H](N)C3)cc12 [NCGC00241042-01] | -4.7486 Log AC50 (M) | 17.8 | -4.9986 Log AC50 (M) and -4.8486 Log AC50 (M) | 17.8 | 
18 | COC(=O)c1ccc(O)c2ncc(N3CC[C@@H](N)C3)cc12 [NCGC00241044-01] | -5.1986 Log AC50 (M) and -5.0986 Log AC50 (M) | 11.3 | -4.8986 Log AC50 (M) and -5.0486 Log AC50 (M) | 7.1 | 
19 | O=C(O)c1ccc(O)c2ncc(N3CCCNCC3)cc12 [NCGC00241047-01] | -4.7986 Log AC50 (M) | 15.9 | -4.8986 Log AC50 (M) and -4.8486 Log AC50 (M) | 15.9 | 
